Experimental data published in ChEMBL document CHEMBL4130562, “Design, Synthesis, and Antibacterial Evaluation of Oxazolidinones with Fused Heterocyclic C-Ring Substructure” (ACS Med Chem Lett, 2017).
Converted amounts (≈) assume the structure as drawn.

Assays:
Type in all cases: functional
Staphylococcus aureus [1] = assay: Antibacterial activity against Staphylococcus aureus ATCC 6538P by microbroth dilution method
Staphylococcus aureus [2] = assay: Antibacterial activity against Staphylococcus aureus ATCC 33591 by microbroth dilution method
Staphylococcus aureus [3] = assay: Antibacterial activity against Staphylococcus aureus ATCC 29213 by microbroth dilution method
Staphylococcus aureus [4] = assay: Antibacterial activity against methicillin-resistant Staphylococcus aureus 1201984 by microbroth dilution method
Staphylococcus aureus [5] = assay: Antibacterial activity against linezolid-resistant Staphylococcus aureus by microbroth dilution method
Enterococcus faecalis = assay: Antibacterial activity against Enterococcus faecalis ATCC 29212 by microbroth dilution method
Enterococcus faecium = assay: Antibacterial activity against Enterococcus faecium 19434 by microbroth dilution method
Streptococcus pneumoniae = assay: Antibacterial activity against Streptococcus pneumoniae 55143 by microbroth dilution method
Streptococcus pyogenes = assay: Antibacterial activity against Streptococcus pyogenes ATCC 19615 by microbroth dilution method
[6] = tested on: Staphylococcus epidermidis; assay: Antibacterial activity against Staphylococcus epidermidis ATCC 14990 by microbroth dilution method
Haemophilus influenzae = assay: Antibacterial activity against Haemophilus influenzae ATCC 49247 by microbroth dilution method

SMILES | MIC (Staphylococcus aureus [1]) | MIC (Staphylococcus aureus [2]) | MIC (Staphylococcus aureus [3]) | MIC (Staphylococcus aureus [4]) | MIC (Staphylococcus aureus [5]) | MIC (Enterococcus faecalis) | MIC (Enterococcus faecium) | MIC (Streptococcus pneumoniae) | MIC (Streptococcus pyogenes) | MIC [6] | MIC (Haemophilus influenzae)
O=C(CO)NC[C@H]1CN(c2ccc(-c3ccc4c(c3)NC(=O)CO4)c(F)c2)C(=O)O1 | 0.25 µg/mL (≈ 0.602 µM) | 1 µg/mL (≈ 2.41 µM) | 1 µg/mL (≈ 2.41 µM) | 1 µg/mL (≈ 2.41 µM) | 4 µg/mL (≈ 9.63 µM) | 0.06 µg/mL (≈ 0.144 µM) | 0.06 µg/mL (≈ 0.144 µM) | 0.125 µg/mL (≈ 0.301 µM) | 0.125 µg/mL (≈ 0.301 µM) | 0.25 µg/mL (≈ 0.602 µM) | 0.5 µg/mL (≈ 1.2 µM)
O=C1COc2ccc(-c3ccc(N4C[C@H](CO)OC4=O)cc3F)nc2N1 | 0.125 µg/mL (≈ 0.348 µM) | 0.125 µg/mL (≈ 0.348 µM) | 0.5 µg/mL (≈ 1.39 µM) | 0.25 µg/mL (≈ 0.696 µM) | 4 µg/mL (≈ 11.1 µM) | 0.25 µg/mL (≈ 0.696 µM) | 0.25 µg/mL (≈ 0.696 µM) | 0.25 µg/mL (≈ 0.696 µM) | 0.25 µg/mL (≈ 0.696 µM) | < 0.06 µg/mL | 1 µg/mL (≈ 2.78 µM)
O=C1COc2ccc(-c3ccc(N4C[C@H](CNC(=O)C5CC5)OC4=O)cc3F)cc2N1 | 0.25 µg/mL (≈ 0.588 µM) | 1 µg/mL (≈ 2.35 µM) | 1 µg/mL (≈ 2.35 µM) | 1 µg/mL (≈ 2.35 µM) | 4 µg/mL (≈ 9.4 µM) | 0.25 µg/mL (≈ 0.588 µM) | 0.125 µg/mL (≈ 0.294 µM) | 0.5 µg/mL (≈ 1.18 µM) | 0.5 µg/mL (≈ 1.18 µM) | 0.25 µg/mL (≈ 0.588 µM) | 1 µg/mL (≈ 2.35 µM)
O=C1CCOc2ccc(-c3ccc(N4C[C@H](CO)OC4=O)cc3F)cc2N1 | 0.06 µg/mL (≈ 0.161 µM) | 0.5 µg/mL (≈ 1.34 µM) | 0.125 µg/mL (≈ 0.336 µM) | 0.125 µg/mL (≈ 0.336 µM) | 2 µg/mL (≈ 5.37 µM) | 0.25 µg/mL (≈ 0.671 µM) | 0.125 µg/mL (≈ 0.336 µM) | 0.25 µg/mL (≈ 0.671 µM) | 0.25 µg/mL (≈ 0.671 µM) | 0.06 µg/mL (≈ 0.161 µM) | 0.5 µg/mL (≈ 1.34 µM)
O=C1COc2cc(-c3ccc(N4C[C@H](CO)OC4=O)cc3F)ccc2N1 | 0.5 µg/mL (≈ 1.4 µM) | 0.5 µg/mL (≈ 1.4 µM) | 0.5 µg/mL (≈ 1.4 µM) | 0.5 µg/mL (≈ 1.4 µM) | 16 µg/mL (≈ 44.7 µM) | 1 µg/mL (≈ 2.79 µM) | 1 µg/mL (≈ 2.79 µM) | 2 µg/mL (≈ 5.58 µM) | 2 µg/mL (≈ 5.58 µM) | 0.5 µg/mL (≈ 1.4 µM) | 0.25 µg/mL (≈ 0.698 µM)
O=C1O[C@@H](CO)CN1c1ccc(-c2cnc3ccc(=O)[nH]c3c2)c(F)c1 | 0.25 µg/mL (≈ 0.704 µM) | 0.25 µg/mL (≈ 0.704 µM) | 0.5 µg/mL (≈ 1.41 µM) | 16 µg/mL (≈ 45 µM) | 8 µg/mL (≈ 22.5 µM) | 0.5 µg/mL (≈ 1.41 µM) | 0.125 µg/mL (≈ 0.352 µM) | 0.25 µg/mL (≈ 0.704 µM) | 0.25 µg/mL (≈ 0.704 µM) | 0.25 µg/mL (≈ 0.704 µM) | 0.5 µg/mL (≈ 1.41 µM)
O=C1COc2ccc(-c3ccc(N4C[C@H](CNC(=O)C(F)F)OC4=O)cc3F)cc2N1 | 0.125 µg/mL (≈ 0.287 µM) | 0.5 µg/mL (≈ 1.15 µM) | 0.5 µg/mL (≈ 1.15 µM) | 0.5 µg/mL (≈ 1.15 µM) | 4 µg/mL (≈ 9.19 µM) | 0.06 µg/mL (≈ 0.138 µM) | 0.06 µg/mL (≈ 0.138 µM) | 0.25 µg/mL (≈ 0.574 µM) | 0.25 µg/mL (≈ 0.574 µM) | 0.125 µg/mL (≈ 0.287 µM) | 0.5 µg/mL (≈ 1.15 µM)
CC1(C)Oc2ccc(-c3ccc(N4C[C@H](CO)OC4=O)cc3F)cc2NC1=O | 0.125 µg/mL (≈ 0.324 µM) | 1 µg/mL (≈ 2.59 µM) | 0.25 µg/mL (≈ 0.647 µM) | 0.25 µg/mL (≈ 0.647 µM) | 16 µg/mL (≈ 41.4 µM) | 0.5 µg/mL (≈ 1.29 µM) | 0.25 µg/mL (≈ 0.647 µM) | 0.25 µg/mL (≈ 0.647 µM) | 0.25 µg/mL (≈ 0.647 µM) | < 0.06 µg/mL | 0.125 µg/mL (≈ 0.324 µM)
O=C1Cc2ccc(-c3ccc(N4C[C@H](CO)OC4=O)cc3F)cc2N1 | 0.25 µg/mL (≈ 0.73 µM) | 32 µg/mL (≈ 93.5 µM) | 1 µg/mL (≈ 2.92 µM) | 32 µg/mL (≈ 93.5 µM) | 4 µg/mL (≈ 11.7 µM) | 0.25 µg/mL (≈ 0.73 µM) | 0.25 µg/mL (≈ 0.73 µM) | 0.125 µg/mL (≈ 0.365 µM) | 0.125 µg/mL (≈ 0.365 µM) | < 0.06 µg/mL | 2 µg/mL (≈ 5.84 µM)
CC(=O)NC[C@H]1CN(c2ccc(N3CCOCC3)c(F)c2)C(=O)O1 [LINEZOLID] | 1 µg/mL (≈ 2.96 µM) | 1 µg/mL (≈ 2.96 µM) |  | 1 µg/mL (≈ 2.96 µM) | 16 µg/mL (≈ 47.4 µM) |  | 2 µg/mL (≈ 5.93 µM) |  | 0.5 µg/mL (≈ 1.48 µM) |  | 4 µg/mL (≈ 11.9 µM)
CN[C@H](CC(C)C)C(=O)N[C@H]1C(=O)N[C@@H](CC(N)=O)C(=O)N[C@H]2C(=O)N[C@H]3C(=O)N[C@H](C(=O)N[C@H](C(=O)O)c4cc(O)cc(O)c4-c4cc3ccc4O)[C@H](O)c3ccc(c(Cl)c3)Oc3cc2cc(c3O[C@@H]2O[C@H](CO)[C@@H](O)[C@H](O)[C@H]2O[C@H]2C[C@](C)(N)[C@H](O)[C@H](C)O2)Oc2ccc(cc2Cl)[C@H]1O [VANCOMYCIN] |  |  |  |  |  | 2 µg/mL (≈ 1.38 µM) |  | 2 µg/mL (≈ 1.38 µM) | 2 µg/mL (≈ 1.38 µM) |  | 
